Where “and” joins values, the source holds several entries; their conditions need not be identical. Identical values can stand only once.
Legend:
USP2 = biological target: T1, USP2 (Homo sapiens, UniProt O75604); assay: USP2 IQF diubiquitin selectivity assay; format: biochemical; details: Fig. 1g, USP2
T1 construct: His (N, cleaved yes); host or cells: Escherichia coli BL21(DE3)
T1 sequence (O75604 258-605 limits assumed): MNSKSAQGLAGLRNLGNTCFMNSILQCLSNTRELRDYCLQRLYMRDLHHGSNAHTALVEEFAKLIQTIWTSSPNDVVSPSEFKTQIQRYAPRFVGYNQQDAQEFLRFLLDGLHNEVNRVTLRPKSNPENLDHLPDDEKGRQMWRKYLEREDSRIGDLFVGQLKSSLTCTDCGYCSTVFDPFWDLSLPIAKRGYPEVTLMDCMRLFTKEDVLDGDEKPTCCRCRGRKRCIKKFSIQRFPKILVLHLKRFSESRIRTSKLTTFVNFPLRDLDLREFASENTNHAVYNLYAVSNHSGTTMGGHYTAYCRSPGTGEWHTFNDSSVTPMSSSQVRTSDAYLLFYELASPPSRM
Protocol: BRISC DUB activity was measured at room temperature using 1 nM BRISC and 500 nM IQF diubiquitin K63 substrate (LifeSensors, DU6303) in the presence of DMSO and compounds at 10 μM (final concentrations). Assays were performed in 384-well black flat-bottom low-flange plates (Corning, 35373) in buffer containing 50 mM HEPES–NaOH pH 7.0, 100 mM NaCl, 1 mg ml^−1 BSA, 1 mM DTT and 0.03% v/v Brij-35. Then, 10 μl of twofold concentrated enzyme stock was dispensed, followed by transfer of 200 nl of compounds (1 mM stock) using a 384-pin tool and a 15-min incubation at room temperature. Then, 10 μl of twofold concentrated substrate stock was added and the reaction was monitored by measuring fluorescence intensity (excitation, 540 nm; emission, 580 nm) after 20-min incubation at room temperature and ~50% of substrate was consumed. Orthogonal assays for verification of H20 and P12 hit compounds using USP2 (100 nM) and trypsin (125 nM) were performed in identical conditions.
(§1) IQF assays were performed in DUB reaction buffer containing 50 mM HEPES–NaOH pH 7.0, 100 mM NaCl, 0.1 mg ml^−1 BSA, 1 mM DTT and 0.03% v/v Brij-35. […] The final concentration of BRISC WT, all BRISC mutants, HsBRISCΔLoop, MmBRISC and DrBRISCΔNΔC was 1 nM. Other enzymes were tested at the following concentrations: 5 nM ARISC (FL), 10 nM CfBRISCΔNΔC, 250 nM AMSH* (ref. [43]), 500 nM USP2 and 1 μM trypsin (Sigma, 9002-07-7). For Michaelis–Menten experiments, 1 nM BRISC with 0–1 μM IQF K63-linked diubiquitin substrate was used. Michaelis–Menten analyses and Lineweaver–Burk plots were calculated using GraphPad Prism (version 9.0).
(§2) To assess enzymatic activity, BRISC complexes were diluted to concentrations between 1 nM and 50 nM. […] Then, 20-μl enzyme reactions were carried out in 384-well black flat-bottom low-flange plates (Corning, 35373). DUB activity was measured using IQF K63-linked diubiquitin (LifeSensors, DU6303) at 50 nM. Cleaved diubiquitin was monitored by measuring fluorescence intensity (excitation, 544 nm; emission, 575 nm; dichroic mirror, 560 nm). Fluorescence intensity was measured every minute for 30 min at 30 °C. Fluorescence intensity units were plotted against time to generate a linear reaction progress curve, where the initial velocity (V0) corresponds to the gradient of the curve (typically achieved within 15 min). IC50 values were calculated using the GraphPad Prism (version 9.0) built-in dose–response equation for inhibitor concentration versus response (variable slope).

BRCC36–Abraxas 2 complex = biological target: T2, BRCC36–Abraxas 2 complex (Homo sapiens, UniProt P46736+Q15018); assay: BRCC36–Abraxas 2 IQF DUB activity assay; format: biochemical; details: for Normalised V0: Fig. 1g, HsBRCC36-Abraxas2
T2 construct: made in house; host or cells: Spodoptera frugiperda (Sf9) insect cells, MultiBac
Protocol: as §1, §2

[1] = system: ISG expression in MCF10A Cas9 cells expressing BRCC45 R137A; assay: MCF10A BRCC45 R137A ISG expression (RT–qPCR); format: cell-based, human; details: hIFNα2 75 ng/ml, 2.5 μM, 4 h

- Normalised V0 (USP2; FX-171-C 0.02 μM): 1.153 and 1.005 and 0.8911
- Normalised V0 (USP2; FX-171-C 0.0399999 μM): 1.181 and 1.054 and 0.8345
- Normalised V0 (USP2; FX-171-C 0.0599997 μM): 1.101 and 1.035 and 0.8564
- Normalised V0 (USP2; FX-171-C 0.0799994 μM): 1.262 and 0.9465 and 0.964
- Normalised V0 (USP2; FX-171-C 0.119998 μM): 1.156 and 1.12 and 1.0155
- Normalised V0 (USP2; FX-171-C 0.199996 μM): 1.162 and 0.9867 and 0.9385
- Normalised V0 (USP2; FX-171-C 0.499975 μM): 1.323 and 0.7865 and 0.9403
- Normalised V0 (USP2; FX-171-C 0.799936 μM): 1.167 and 0.9524 and 0.9376
- Normalised V0 (USP2; FX-171-C 1.25984 μM): 1.254 and 0.9797 and 0.8377
- Normalised V0 (USP2; FX-171-C 1.9996 μM): 1.211 and 0.9571 and 0.9503
- Normalised V0 (USP2; FX-171-C 3.159 μM): 1.329 and 0.7564 and 0.948
- Normalised V0 (USP2; FX-171-C 5.19739 μM): 1.206 and 0.9941 and 0.9284
- Normalised V0 (USP2; FX-171-C 7.99364 μM): 1.269 and 0.9668 and 0.7862
- Normalised V0 (USP2; FX-171-C 12.7839 μM): 1.167 and 1.027 and 0.9175
- Normalised V0 (USP2; FX-171-C 19.96 μM): 1.282 and 0.8934 and 0.9216
- Normalised V0 (USP2; FX-171-C 31.4999 μM): 1.071 and 0.9617 and 0.949
- Normalised V0 (USP2; FX-171-C 50.147 μM): 1.087 and 1.072 and 0.8163
- Normalised V0 (USP2; FX-171-C 79.7601 μM): 1.1 and 0.8638 and 0.912
- Normalised V0 (USP2; FX-171-C 125.99 μM): 1.048 and 0.9793 and 0.8997
- Normalised V0 (USP2; FX-171-C 199.922 μM): 1.047 and 0.829 and 0.8108
- Normalised V0 (BRCC36–Abraxas 2 complex; FX-171-C 0.02 μM): 1.3 and 1.008 and 1.02
- Normalised V0 (BRCC36–Abraxas 2 complex; FX-171-C 0.0399999 μM): 1.022 and 1.101 and 0.829
- Normalised V0 (BRCC36–Abraxas 2 complex; FX-171-C 0.0599997 μM): 1.02 and 1.119 and 0.8587
- Normalised V0 (BRCC36–Abraxas 2 complex; FX-171-C 0.0799994 μM): 1.3 and 1.0735 and 0.9036
- Normalised V0 (BRCC36–Abraxas 2 complex; FX-171-C 0.119998 μM): 1.089 and 1.054 and 0.9805
- Normalised V0 (BRCC36–Abraxas 2 complex; FX-171-C 0.199996 μM): 1.086 and 0.9378 and 0.7276
- Normalised V0 (BRCC36–Abraxas 2 complex; FX-171-C 0.499975 μM): 1.276 and 0.8855 and 0.9134
- Normalised V0 (BRCC36–Abraxas 2 complex; FX-171-C 0.799936 μM): 1.016 and 0.9326 and 0.9281
- Normalised V0 (BRCC36–Abraxas 2 complex; FX-171-C 1.25984 μM): 1.192 and 1.006 and 0.8037
- Normalised V0 (BRCC36–Abraxas 2 complex; FX-171-C 1.9996 μM): 1.057 and 0.8883 and 0.8901
- Normalised V0 (BRCC36–Abraxas 2 complex; FX-171-C 3.159 μM): 1.054 and 1.032 and 0.8522
- Normalised V0 (BRCC36–Abraxas 2 complex; FX-171-C 5.19739 μM): 1.053 and 0.9454 and 1.03
- Normalised V0 (BRCC36–Abraxas 2 complex; FX-171-C 7.99364 μM): 1.141 and 1 and 1.012
- Normalised V0 (BRCC36–Abraxas 2 complex; FX-171-C 12.7839 μM): 1.078 and 0.9313 and 0.7823
- Normalised V0 (BRCC36–Abraxas 2 complex; FX-171-C 19.96 μM): 1.034 and 1.063 and 0.8934
- Normalised V0 (BRCC36–Abraxas 2 complex; FX-171-C 31.4999 μM): 1.1494 and 0.9768 and 0.8462
- Normalised V0 (BRCC36–Abraxas 2 complex; FX-171-C 50.147 μM): 1.218 and 1.114 and 0.9054
- Normalised V0 (BRCC36–Abraxas 2 complex; FX-171-C 79.7601 μM): 1.112 and 1.275 and 1.169
- Normalised V0 (BRCC36–Abraxas 2 complex; FX-171-C 125.99 μM): 1.275 and 1.029 and 0.9009
- Normalised V0 (BRCC36–Abraxas 2 complex; FX-171-C 199.922 μM): 1.127 and 0.8107 and 0.6392
- inhibition of BRCC36–Abraxas 2 complex (BRCC36–Abraxas 2 complex; minimally active complex): did not inhibit
SMILES: O=C(NC1C2CNCC21)c1nn(C(=O)c2c(Cl)cccc2Cl)cc1NC(=O)c1c(Cl)cccc1Cl (stereo not drawn) [FX-171-C]
- ISG expression (ISG15, IFIT1, IFIT2, IFITM1, CXCL10) [1]: a reduction in ISG expression was not observed
